# Source: paper PMC10484922, “Discovery of a selective and biologically active low-molecular weight antagonist of human interleukin-1β” (Nature Communications, 2023)
# Tested on: HEK-Blue IL-1β cells stimulated with hIL-1β
# Test: HEK293 reporter gene assay, hIL-1β as trigger
# Type: cell-based, human
# Conditions: inhibitor 3nM
# Method: We used HEK-Blue™ IL-1β cells that respond specifically to IL-1 (# hkb-il1b, InvivoGen). These cells can detect IL-1α and IL-1β, as these cytokines bind to the same receptor, IL-1R1. They express a Seap reporter gene under the control of the IFN-β minimal promoter fused to five NF-kappaB and five AP-1 binding sites. Thirty microliters (300,000 cells/ml) per well of a 384-well plate were plated overnight. Cells were then stimulated with graded concentrations of cytokines (hIL-1α or hIL-1β) in the absence or presence of canakinumab (Ilaris®, ILARI LYVI 150MG 22GLW.012, batch U003 0409)[22], anakinra (Kineret®, 100 mg/0.67 ml injectable solution, Sobi)[23], or compound (S)-2 (compounds were pre-mixed for 1 h with the cytokine prior to addition to cells) and further incubated overnight before assessment of Seap activity.
substance,measurement,setting,value
canakinumab: anti-hIL-1β antibody [reference compound],"reporter gene assay signal, mean (Figure 3d)",IL-1beta 3.04596 pg/ml,0.06
same,"reporter gene assay signal, mean (Figure 3d)",IL-1beta 6.09192 pg/ml,0.06
same,"reporter gene assay signal, mean (Figure 3d)",IL-1beta 12.1838 pg/ml,0.06
same,"reporter gene assay signal, mean (Figure 3d)",IL-1beta 24.3677 pg/ml,0.06
same,"reporter gene assay signal, mean (Figure 3d)",IL-1beta 48.7353 pg/ml,0.06
same,"reporter gene assay signal, mean (Figure 3d)",IL-1beta 97.4707 pg/ml,0.07
same,"reporter gene assay signal, mean (Figure 3d)",IL-1beta 194.941 pg/ml,0.08
same,"reporter gene assay signal, mean (Figure 3d)",IL-1beta 389.883 pg/ml,0.1
same,"reporter gene assay signal, mean (Figure 3d)",IL-1beta 779.766 pg/ml,0.2
same,"reporter gene assay signal, mean (Figure 3d)",IL-1beta 1559.53 pg/ml,0.42
same,"reporter gene assay signal, mean (Figure 3d)",IL-1beta 3119.06 pg/ml,0.74
same,"reporter gene assay signal, mean (Figure 3d)",IL-1beta 6238.12 pg/ml,1.18
same,"reporter gene assay signal, mean (Figure 3d)",IL-1beta 12476.2 pg/ml,1.55
same,"reporter gene assay signal, mean (Figure 3d)",IL-1beta 24952.5 pg/ml,1.78
same,"reporter gene assay signal, mean (Figure 3d)",IL-1beta 49905 pg/ml,1.85
